US20170298051A1, “ACTIVATOR OF ADIPONECTIN RECEPTOR” (THE UNIVERSITY OF TOKYO, priority 2013, published 2017)

Tests used:
[1] = test system: mice on a HF diet; assay: Hyperinsulinemic euglycemic clamp study in mice on a HF diet; assay type: in vivo
Experimental: Clamp studies were carried out as described previously^a,b, with slight modifications. In brief, 2-3 days before the study, an infusion catheter was inserted into the right jugular vein under general anesthesia with sodium pentobarbital. Studies were performed on mice under conscious and unstressed conditions after a 6 h fast. A primed continuous infusion of insulin (Humulin R, Lilly) was given (10.0 milliunits/kg/min),and the blood glucose concentration, monitored every 5 min, was maintained at 120 mg/dl by administration of glucose (5 g of glucose per 10 ml enriched to 20% with [6,6-^2H2] glucose (Sigma)) for 120 min. Blood was sampled via tail tip bleeds at 90, 105, and 120 min for determination of the rate of glucose disappearance (Rd). Rd was calculated according to nonsteady-state equations, and endogenous glucose production (EGP) was calculated as the difference between Rd and exogenous glucose infusion rates^a,b,c.

[2] = test system: AdipoR1-AMPK-PGC-1α pathways in skeletal muscle; assay: Skeletal muscle: gene expression, mitochondrial DNA content, TG content, TBARS in mice fed a HF diet; assay type: in vivo
Experimental: Mitochondrial content assays were carried out as described previously^a,b, with slight modifications. For quantification of mitochondrial content, we used mtDNAas previously described^c.
Real-time PCR was carried out according to the method described previously^a,b,c. Total RNA was prepared from cells or tissues with Trizol (Invitrogen) according to the manufacturer's instructions. We used a real-time PCR method to quantify the mRNAs^19, with slight modifications.
Skeletal muscle homogenates were extracted, and tissue triglyceride content was determined as described previously^a-c, with some modifications. To investigate whether oxidative stress was increased, we measured lipid peroxidation, a marker of oxidative injury, as represented by plasma thiobarbituric acid reactive substance (TBARS) as described previously^4. Briefly, tissue samples were homogenized in a buffer solution containing 50 mM Tris-HCl (pH 7.4) and 1.15% KCl, and then centrifuged. The supernatant was used for the assay. The levels of lipid peroxidation in tissue homogenate and plasma were measured in terms of the amount of TBARS using the LPO test (Wako Pure Chemical Industries).

[3] = test system: AMPK; assay: AMPK phosphorylation in vivo in skeletal muscle and liver; design: species or system mice; conditions: intravenous 50 mg/kg
Experimental: Immunoblotting was carried out according to the method described previously by which the livers, muscles or white adipose tissues were freeze-clamped in liquid nitrogen in situ^b,d,e.
The procedures used for immunoprecipitation and immunoblotting have been described previously^a,f. Muscle, liver or cell lysates were incubated with 60 μl of protein G sepharose linked to antibodies against phosphotyrosine (4G10) (Merck Millipore). Beads were then washed, the resultant was boiled for 5 min in a sample buffer and the immunoprecipitates were subjected to immunoblotting. Phosphorylation and/or the protein levels of AMPKα (Cell signaling #2535, #2532), IRβ (Upstate 05-321, Santa Cruz sc-711), AKT (Cell signaling #9271, #9272), GSK3 (Cell signaling #5558, #9315) and tubulin (NeoMarkers RB-9281-PO) were determined as described^a,g,h.

[4] = Adipor1/r2 double-knockout mice
[5] = WT mice on HF diet, 10 days of administration

## O=C(COc1ccc(C(=O)c2ccccc2)cc1)NC1CCN(Cc2ccccc2)CC1 [Compound 73, 2-(4-benzoyl-phenoxy)-N-(1-benzylpiperidin-4-yl)acetamide]
[1]; [4]
  GIR, EGP and Rd: None of these parameters were improved
[1]; [5]
  endogenous glucose production (EGP): significantly suppressed
  glucose disposal rate (Rd): significantly increased
  glucose infusion rate (GIR): significantly increased
[2]; [4]
  effects on mitochondrial genes and mitochondrial DNA content in skeletal muscle: totally obliterated
  levels of type I fiber marker Troponin I (slow) (Tnni1): but not in Adipor1/r2 double-knockout mice
[2]; Adipor1/r2 double-knockout mice fed with a HF diet
  effect on Sod2 and TBARS: such effect was not observed
[2]; WT mice
  levels of type I fiber marker Troponin I (slow) (Tnni1): increased the levels
  mitochondrial DNA content in skeletal muscle: increased mitochondrial DNA content
[2]; WT mice fed with a HF diet
  TG content in the skeletal muscle: decreased TG content
[2]; skeletal muscle, WT mice
  expression levels of oxidative stress detoxifying genes such as Sod2: significantly increased expression levels
  genes involved in fatty acid oxidation such as Acadm: significantly increased
  oxidative stress markers such as TBARS: decreased oxidative stress markers
[3]; [4]
  phosphorylation of AMPK in skeletal muscle and liver: but not in Adipor1/r2 double-knockout mice
[3]; wild-type (WT) mice
  phosphorylation of AMPK in skeletal muscle and liver: significantly induced phosphorylation of AMPK
